This passage reports activation, Emax and EC50 results from ChEMBL document CHEMBL1914417 (Bioorg Med Chem Lett, 2011).

SMILES strings stand for the structures. Active and inactive are the calls of the source. The rule behind the calls is not given here. A value given as a limit tells only on which side of the number the result lay.

Common to all, as to assay type: functional, cell-based
In assay [1] the target is T1, Muscarinic acetylcholine receptor M1 (Rattus norvegicus) (UniProt P08482).
T1 sequence (whole entry): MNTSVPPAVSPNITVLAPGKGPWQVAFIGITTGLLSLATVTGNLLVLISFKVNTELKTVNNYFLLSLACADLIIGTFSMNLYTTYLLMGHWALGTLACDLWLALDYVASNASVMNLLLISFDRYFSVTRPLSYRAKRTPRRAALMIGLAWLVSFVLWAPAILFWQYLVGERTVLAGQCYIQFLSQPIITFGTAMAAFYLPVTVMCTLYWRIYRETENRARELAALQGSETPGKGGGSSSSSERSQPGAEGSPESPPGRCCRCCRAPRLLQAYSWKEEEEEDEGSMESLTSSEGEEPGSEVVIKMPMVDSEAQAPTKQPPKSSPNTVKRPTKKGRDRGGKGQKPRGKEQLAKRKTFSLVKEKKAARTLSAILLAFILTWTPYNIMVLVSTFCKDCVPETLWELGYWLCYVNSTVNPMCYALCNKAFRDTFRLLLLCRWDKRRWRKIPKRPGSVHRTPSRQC
Put plainly: Agonist activity at rat muscarinic M1 receptor expressed in CHO cells at 10 uM.

Assay [2] concerns the target T1, Muscarinic acetylcholine receptor M1 (Rattus norvegicus). The assay can be described thus: Agonist activity at rat muscarinic M1 receptor expressed in CHO cells relative to acetylcholine.
The target of assay [3] is T2, Muscarinic acetylcholine receptor M2 (Rattus norvegicus, UniProt P10980).
T2 sequence (P10980 whole entry): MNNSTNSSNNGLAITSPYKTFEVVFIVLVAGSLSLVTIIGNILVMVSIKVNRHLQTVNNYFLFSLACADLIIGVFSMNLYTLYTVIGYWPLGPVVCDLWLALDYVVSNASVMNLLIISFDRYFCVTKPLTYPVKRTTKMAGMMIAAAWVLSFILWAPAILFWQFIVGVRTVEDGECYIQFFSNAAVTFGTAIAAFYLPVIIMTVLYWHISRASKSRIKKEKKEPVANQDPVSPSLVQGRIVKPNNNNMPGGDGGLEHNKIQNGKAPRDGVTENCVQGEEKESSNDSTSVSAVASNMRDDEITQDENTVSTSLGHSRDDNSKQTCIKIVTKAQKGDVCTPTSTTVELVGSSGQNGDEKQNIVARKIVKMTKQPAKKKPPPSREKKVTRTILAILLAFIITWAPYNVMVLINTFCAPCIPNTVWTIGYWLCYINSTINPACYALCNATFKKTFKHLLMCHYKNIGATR
Put plainly: Agonist activity at rat muscarinic M2 receptor expressed in CHO cells.

Assay [4] has as its target Muscarinic acetylcholine receptor M3 (Rattus norvegicus, UniProt P08483). The assay can be described thus: Agonist activity at rat muscarinic M3 receptor expressed in CHO cells.
The target of assay [5] is T3, Muscarinic acetylcholine receptor M4 (Rattus norvegicus, UniProt P08485).
T3 sequence (P08485 whole entry): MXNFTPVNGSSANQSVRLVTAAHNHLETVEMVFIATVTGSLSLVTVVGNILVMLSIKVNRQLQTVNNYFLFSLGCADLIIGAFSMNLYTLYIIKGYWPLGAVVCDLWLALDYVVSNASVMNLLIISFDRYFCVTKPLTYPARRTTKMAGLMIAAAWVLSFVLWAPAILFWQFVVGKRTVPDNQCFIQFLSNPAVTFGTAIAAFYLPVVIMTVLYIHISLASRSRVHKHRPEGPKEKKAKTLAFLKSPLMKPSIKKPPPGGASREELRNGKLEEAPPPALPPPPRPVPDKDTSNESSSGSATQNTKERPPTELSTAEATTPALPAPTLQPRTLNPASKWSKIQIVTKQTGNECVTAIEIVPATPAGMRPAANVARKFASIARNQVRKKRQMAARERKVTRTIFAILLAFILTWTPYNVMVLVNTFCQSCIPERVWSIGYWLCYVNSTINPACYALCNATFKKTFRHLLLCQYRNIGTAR
The assay can be described thus: Agonist activity at rat muscarinic M4 receptor expressed in CHO cells.

Assay [6] concerns the target T4, Muscarinic acetylcholine receptor M5 (Rattus norvegicus, UniProt P08911).
T4 sequence (P08911 whole entry): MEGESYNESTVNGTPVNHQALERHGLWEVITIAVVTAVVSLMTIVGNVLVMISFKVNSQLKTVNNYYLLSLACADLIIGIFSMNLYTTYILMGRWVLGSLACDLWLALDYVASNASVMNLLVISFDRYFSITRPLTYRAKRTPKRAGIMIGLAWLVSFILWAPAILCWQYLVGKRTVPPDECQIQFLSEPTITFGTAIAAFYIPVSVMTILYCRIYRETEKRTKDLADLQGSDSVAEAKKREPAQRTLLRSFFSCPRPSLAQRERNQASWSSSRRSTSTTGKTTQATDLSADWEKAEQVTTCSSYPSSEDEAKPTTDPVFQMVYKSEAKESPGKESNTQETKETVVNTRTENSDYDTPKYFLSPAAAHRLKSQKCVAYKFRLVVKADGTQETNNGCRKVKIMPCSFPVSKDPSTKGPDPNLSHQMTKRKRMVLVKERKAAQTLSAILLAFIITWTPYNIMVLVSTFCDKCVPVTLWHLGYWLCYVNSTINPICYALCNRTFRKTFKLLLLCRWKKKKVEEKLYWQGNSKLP
Put plainly: Agonist activity at rat muscarinic M5 receptor expressed in CHO cells.

For assay [7], the target named is T5, Muscarinic acetylcholine receptor M1 (Rattus norvegicus, UniProt P08482).
T5 sequence (P08482 whole entry): T1 sequence (whole entry)
The assay can be described thus: Agonist activity at rat muscarinic M1 receptor expressed in CHO cells.

Chain of Muscarinic acetylcholine receptor M3 (P08483 whole entry): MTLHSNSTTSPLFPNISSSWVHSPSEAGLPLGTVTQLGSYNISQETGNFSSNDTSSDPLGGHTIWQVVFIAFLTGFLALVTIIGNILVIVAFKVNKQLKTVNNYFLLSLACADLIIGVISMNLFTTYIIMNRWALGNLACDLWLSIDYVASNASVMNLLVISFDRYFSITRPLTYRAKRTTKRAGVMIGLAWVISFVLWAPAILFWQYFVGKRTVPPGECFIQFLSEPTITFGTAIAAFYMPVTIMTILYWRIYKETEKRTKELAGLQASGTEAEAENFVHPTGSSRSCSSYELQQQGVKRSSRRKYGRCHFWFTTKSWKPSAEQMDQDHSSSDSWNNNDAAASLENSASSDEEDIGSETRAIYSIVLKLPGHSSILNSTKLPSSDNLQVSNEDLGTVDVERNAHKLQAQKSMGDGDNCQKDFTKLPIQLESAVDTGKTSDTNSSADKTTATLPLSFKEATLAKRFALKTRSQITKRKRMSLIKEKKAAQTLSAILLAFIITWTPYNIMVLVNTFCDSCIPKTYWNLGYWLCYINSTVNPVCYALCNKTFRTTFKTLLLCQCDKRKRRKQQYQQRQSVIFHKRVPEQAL

Consider `CCOC(=O)N1CCC(N[C@@H]2CCN(C(=O)c3ccccc3C)C2)CC1`, for which the activation in assay [1] was under 30%.
Take `CCOC(=O)N1CCC(N2CCC[C@@H](NC(=O)C3CCCC3)C2)CC1`: the Emax in assay [2] was 35%. Further, the EC50 in assay [3], in assay [4], in assay [5] and in assay [6] was over 10 µM throughout.
For `CCOC(=O)N1CCC(N2CCC[C@@H](NC(=O)c3ccc(F)cc3C)C2)CC1`, the EC50 was 0.06 µM in assay [7]; over 10 µM in assay [3]; over 10 µM in assay [4]; over 10 µM in assay [5]; over 10 µM in assay [6]. This compound had an Emax in assay [2] of 77%.
Consider `CCOC(=O)N1CCC(N2CCC[C@@H](NC(=O)c3ccccc3Cl)C2)CC1`, for which, in assay [2], the Emax was found to be 57%. Also, the EC50 in assay [3], in assay [4], in assay [5] and in assay [6] was over 10 µM in each case.
For `CCOC(=O)N1CCC(N2CC[C@H](NC(=O)c3ccccc3C)C2)CC1`, the activation in assay [1] is under 30%.
In the case of `CCOC(=O)N1CCC(N2CCC[C@@H](NC(=O)c3cccc(OC)c3)C2)CC1`, the EC50 was 0.25 µM in assay [7]; over 10 µM in assay [3]; over 10 µM in assay [4]; over 10 µM in assay [5]; over 10 µM in assay [6]. Also, the Emax in assay [2] worked out at 91%.
In turn, `CCOC(=O)N1CCC(N2CC[C@@H](NC(=O)c3ccccc3C)C2)CC1` gave an activation in assay [1] of under 30%.
Same read-out and setting: to `CCOC(=O)N1CCC(N[C@H]2CCN(C(=O)c3ccccc3C)C2)CC1` belongs under 30%.
Regarding `CCOC(=O)N1CCC(N2CCC[C@@H](NC(=O)c3cccc(F)c3)C2)CC1`, the EC50 in assay [7] was 0.14 µM; in assay [3], over 10 µM; in assay [4], over 10 µM; in assay [5] it was over 10 µM; in assay [6], over 10 µM. This compound also gave an Emax in assay [2] of 92%.
Take `CCOC(=O)N1CCC(N2CCC[C@@H](NC(=O)c3ccc(F)c(F)c3)C2)CC1`: the Emax in assay [2] was 84%. For the same compound, the EC50 in assay [3], in assay [4], in assay [5] and in assay [6] was over 10 µM in each case.
Turning to `CCOC(=O)N1CCC(N2CCC[C@@H](NC(=O)c3ccccc3)C2)CC1`, the EC50 in assay [7] is 0.13 µM; in assay [3] it was over 10 µM; in assay [4], over 10 µM; in assay [5], over 10 µM; in assay [6], over 10 µM. The Emax in assay [2] amounted to 91%.
Take `CCOC(=O)N1CCC(N2C[C@H]3CN(C(=O)c4ccccc4C)C[C@H]3C2)CC1`: the activation in assay [1] is under 30%.
The same measure, in the same setting: to `CCOC(=O)N1CCC(N2CCN(C(=O)c3ccccc3C)CC2)CC1` belongs under 30%.
Compound `CCOC(=O)N1CCC(N2CCC[C@@H](NC(=O)c3cccs3)C2)CC1` yielded an Emax in assay [2] of 61%. The half-maximal effective concentration (EC50) in assay [3], in assay [4], in assay [5] and in assay [6] was over 10 µM throughout.
In assay [2], `CCOC(=O)N1CCC(N2CCC[C@@H](NC(=O)C3CCCCC3)C2)CC1` gave an Emax of 44%. The EC50 in assay [3], in assay [4], in assay [5] and in assay [6] was over 10 µM throughout.
`CCOC(=O)N1CCC(N2CCC[C@@H](NC(=O)c3ccc(OC)cc3)C2)CC1` returned an Emax in assay [2] of 63%. Also, the half-maximal effective concentration (EC50) in assay [3], in assay [4], in assay [5] and in assay [6] was over 10 µM throughout.
In assay [1], `CCOC(=O)N1CCC(N2C[C@@H]3C[C@H]2CN3C(=O)c2ccccc2C)CC1` had an activation of under 30%.
Same read-out and setting: then `CCOC(=O)N1CCC(N2CCC[C@H](NC(=O)c3ccccc3C)C2)CC1`, with “inactive”.
As to `CCOC(=O)N1CCC(N2CCC[C@@H](NC(=O)c3ccc(C)cc3)C2)CC1`, the Emax in assay [2] was 41%. In addition, the EC50 in assay [3], in assay [4], in assay [5] and in assay [6] was over 10 µM throughout.

The term Emax denotes the maximal effect, on the per cent scale that the assay sets. For orientation: EC50 means the midpoint of the concentration-response curve.
